Results from patent publication US5654411A, “Process for preparing 4-deoxyerythromycin derivatives” (Abbott Laboratories, priority 1995, dated 1997).
Converted amounts (≈) assume the structure as drawn.

How the values were obtained:
[1] = system: smooth muscle strips isolated from rabbit small intestine; test: Induction of in vitro rabbit duodenal smooth muscle contraction; conditions: for EC50: Oryctolagus cuniculus, rabbit duodenum longitudinal muscle, 37° C., pH 7.5, read-out: pED50 (negative logarithm of the concentration producing half of the maximal contraction) (converted); for Relative Potency: relative to erythromycin A = 1.0
Procedure: The compounds of the present invention were tested in vitro for their ability to induce contraction of smooth muscle strips isolated from rabbit small intestine using the following procedure:
Rabbits were sacrificed and 15 cm of duodenum was rapidly removed and placed in ice-cold modified Ringers solution (120 mM sodium chloride, 25 mM sodium bicarbonate, 4.7 mM potassium chloride, 1.25 mM calcium chloride, 1.20 mM magnesium sulfate and 5.6 mM glucose). The longitudinal muscle layer was separated from the circular muscle by blunt dissection and cut into strips of 10×20 mm. Double-folded strips were vertically suspended between two hooks in 10 mL tissue baths with a mechanical preload of 1 g. The upper hook was connected to an […] force transducer, and its displacement was recorded on a Grass polygraph. The tissue baths contained modified Ringers solution at 37° C. and were continuously gassed with 95% oxygen/5% carbon dioxide in order to maintain the pH at 7.5.
After a stabilization period of at least 60 minutes, a contractility dose-response series was performed by adding increasing final concentrations of methacholine (10^-7 M, 10^-6 M and 10^-5 M) in volumes of 100 μL. The bath solutions were replaced at least three times between doses.
After the methacholine dose-response series was completed, a test compound dose response curve was initiated by the same procedure used for the methacholine dose-response series, with at least five concentrations of test compound within the range of 10^-10 M to 10^-4 M. The tissues were washed repeatedly between doses, and the studies were completed by recording the contractile response to 10^-5 M methacholine to ascertain integrity of the muscle preparation. Contractile responses were expressed as percent of maximal contraction. The concentration of test compound which produces half of the maximal contraction (ED50 value) and the negative logarithm of the ED50 value (PED50) were estimated from the dose-response curves.

[2] = system: Staphylococcus epidermidis 3519; test: Antibacterial activity (MIC), agar dilution method; assay type: cell-based; conditions: unit assumed
Procedure: (§1) Compounds of the invention were next tested for antibacterial potency, such activity being regarded as an undesirable side effect if prokinetic therapy. Assays were conducted using methodology well-known in the art (the agar dilution method).

[3] = system: Staphylococcus aureus NCTC 10649; test: Antibacterial activity (MIC), agar dilution method; assay type: cell-based; conditions: unit assumed
Procedure: as §1

[4] = system: Micrococcus luteus ATCC 4698; test: Antibacterial activity (MIC), agar dilution method; assay type: cell-based; conditions: unit assumed
Procedure: as §1

Escherichia coli KNK 437 = test: Antibacterial activity (MIC), agar dilution method; assay type: cell-based; conditions: unit assumed
Procedure: as §1

[5] = system: Streptococcus pyogenes EES61; test: Antibacterial activity (MIC), agar dilution method; assay type: cell-based; conditions: unit assumed
Procedure: as §1

[6] = system: Pseudomonas aeruginosa BMH10; test: Antibacterial activity (MIC), agar dilution method; assay type: cell-based; conditions: unit assumed
Procedure: as §1

[7] = system: Staphylococcus aureus 642A; test: Antibacterial activity (MIC), agar dilution method; assay type: cell-based; conditions: unit assumed
Procedure: as §1

Escherichia coli H560 = test: Antibacterial activity (MIC), agar dilution method; assay type: cell-based; conditions: unit assumed
Procedure: as §1

Pseudomonas cepacia 2961 = test: Antibacterial activity (MIC), agar dilution method; assay type: cell-based; conditions: unit assumed
Procedure: as §1

[8] = system: Klebsiella pneumoniae ATCC 8045; test: Antibacterial activity (MIC), agar dilution method; assay type: cell-based; conditions: unit assumed
Procedure: as §1

[9] = system: Pseudomonas aeruginosa K799/WT; test: Antibacterial activity (MIC), agar dilution method; assay type: cell-based; conditions: unit assumed
Procedure: as §1

Escherichia coli JUHL = test: Antibacterial activity (MIC), agar dilution method; assay type: cell-based; conditions: unit assumed
Procedure: as §1

[10] = system: Streptococcus bovis A5169; test: Antibacterial activity (MIC), agar dilution method; assay type: cell-based; conditions: unit assumed
Procedure: as §1

[11] = system: Staphylococcus aureus A5177; test: Antibacterial activity (MIC), agar dilution method; assay type: cell-based; conditions: unit assumed
Procedure: as §1

[12] = system: Micrococcus luteus ATCC 9341; test: Antibacterial activity (MIC), agar dilution method; assay type: cell-based; conditions: unit assumed
Procedure: as §1

[13] = system: Enterobacter aerogenes ATCC 13048; test: Antibacterial activity (MIC), agar dilution method; assay type: cell-based; conditions: unit assumed
Procedure: as §1

[14] = system: Pseudomonas aeruginosa A5007; test: Antibacterial activity (MIC), agar dilution method; assay type: cell-based; conditions: unit assumed
Procedure: as §1

[15] = system: Streptococcus pyogenes 2548 INDUC; test: Antibacterial activity (MIC), agar dilution method; assay type: cell-based; conditions: unit assumed
Procedure: as §1

[16] = system: Staphylococcus aureus A-5278; test: Antibacterial activity (MIC), agar dilution method; assay type: cell-based; conditions: unit assumed
Procedure: as §1

[17] = system: Acinetobacter calcoaceticus CMX 669; test: Antibacterial activity (MIC), agar dilution method; assay type: cell-based; conditions: unit assumed
Procedure: as §1

Escherichia coli SS = test: Antibacterial activity (MIC), agar dilution method; assay type: cell-based; conditions: unit assumed
Procedure: as §1

[18] = system: Staphylococcus aureus CMX 553; test: Antibacterial activity (MIC), agar dilution method; assay type: cell-based; conditions: unit assumed
Procedure: as §1

[19] = system: Staphylococcus aureus ATCC 6538P; test: Antibacterial activity (MIC), agar dilution method; assay type: cell-based; conditions: unit assumed
Procedure: as §1

Escherichia coli DC-2 = test: Antibacterial activity (MIC), agar dilution method; assay type: cell-based; conditions: unit assumed
Procedure: as §1

[20] = system: Pseudomonas aeruginosa DPHD-5263; test: Antibacterial activity (MIC), agar dilution method; assay type: cell-based; conditions: unit assumed
Procedure: as §1

[21] = system: Pseudomonas aeruginosa K799/61; test: Antibacterial activity (MIC), agar dilution method; assay type: cell-based; conditions: unit assumed
Procedure: as §1

[22] = system: Streptococcus pyogenes 930 CONST; test: Antibacterial activity (MIC), agar dilution method; assay type: cell-based; conditions: unit assumed
Procedure: as §1

[23] = system: Enterococcus faecium ATCC 8043; test: Antibacterial activity (MIC), agar dilution method; assay type: cell-based; conditions: unit assumed
Procedure: as §1

[24] = system: Providencia stuartii CMX 640; test: Antibacterial activity (MIC), agar dilution method; assay type: cell-based; conditions: unit assumed
Procedure: as §1

[25] = system: Pseudomonas aeruginosa DPHD-2862; test: Antibacterial activity (MIC), agar dilution method; assay type: cell-based; conditions: unit assumed
Procedure: as §1

[26] = system: Staphylococcus aureus 1775; test: Antibacterial activity (MIC), agar dilution method; assay type: cell-based; conditions: unit assumed
Procedure: as §1

[27] = system: Streptococcus agalactiae CMX 508; test: Antibacterial activity (MIC), agar dilution method; assay type: cell-based; conditions: unit assumed
Procedure: as §1

| Compound | MIC [2] | MIC [3] | MIC [4] | MIC (Escherichia coli KNK 437) | MIC [5] | MIC [6] | MIC [7] | MIC (Escherichia coli H560) | MIC (Pseudomonas cepacia 2961) | MIC [8] | MIC [9] | MIC (Escherichia coli JUHL) | MIC [10] | MIC [11] | MIC [12] | MIC [13] | MIC [14] | MIC [15] | MIC [16] | MIC [17] | further results |
| --- | --- | --- | --- | --- | --- | --- | --- | --- | --- | --- | --- | --- | --- | --- | --- | --- | --- | --- | --- | --- | --- |
| CC[C@H]1OC(=O)[C@H](C)[C@@H](O[C@H]2C[C@@](C)(OC)C[C@H](C)O2)[C@H](C)[C@@H](O[C@@H]2O[C@H](C)C[C@H](N(C)CC)[C@H]2O)[C@@]2(C)C[C@@H](C)C(O2)[C@H](C)[C@@H](O)[C@]1(C)O [Example 15, 9-deoxo-3'-N-desmethyl-4",6-dideoxy-6,9-epoxy-3'-N-ethylerythromycin A] | 100 µg/mL (≈ 140 µM) | > 100 µg/mL | 25 µg/mL (≈ 34.9 µM) | > 100 µg/mL | 25 µg/mL (≈ 34.9 µM) | > 100 µg/mL | > 100 µg/mL | > 100 µg/mL | > 100 µg/mL | > 100 µg/mL | > 100 µg/mL | > 100 µg/mL | 6.2 µg/mL (≈ 8.66 µM) | > 100 µg/mL | 25 µg/mL (≈ 34.9 µM) | > 100 µg/mL | > 100 µg/mL | 50 µg/mL (≈ 69.8 µM) | > 100 µg/mL | > 100 µg/mL | EC50 [1]: 23.4 nM; Relative Potency [1]: 60; MIC (Escherichia coli SS): 100 µg/mL (≈ 140 µM); MIC [18]: > 100 µg/mL; MIC [19]: 100 µg/mL (≈ 140 µM); MIC (Escherichia coli DC-2): > 100 µg/mL; MIC [20]: > 100 µg/mL; MIC [21]: > 100 µg/mL; MIC [22]: > 100 µg/mL; MIC [23]: 50 µg/mL (≈ 69.8 µM); MIC [24]: > 100 µg/mL; MIC [25]: > 100 µg/mL; MIC [26]: > 100 µg/mL; MIC [27]: 6.2 µg/mL (≈ 8.66 µM) |
| CC[C@H]1OC(=O)[C@H](C)[C@@H](O[C@H]2C[C@@](C)(OC)C[C@H](C)O2)[C@H](C)[C@@H](O[C@@H]2O[C@H](C)C[C@H](N(C)CC)[C@H]2O)[C@@]2(C)C[C@H](C)C(O2)[C@H](C)[C@@H](O)[C@]1(C)O [Example 11, 9-deoxo-3'-N-desmethyl-4",6-dideoxy-8-epi-3'-N-ethyl-6,9-epoxyerythromycin A] | 100 µg/mL (≈ 140 µM) | 100 µg/mL (≈ 140 µM) | 25 µg/mL (≈ 34.9 µM) | > 100 µg/mL | 25 µg/mL (≈ 34.9 µM) | > 100 µg/mL | > 100 µg/mL | > 100 µg/mL | > 100 µg/mL | > 100 µg/mL | > 100 µg/mL | > 100 µg/mL | 50 µg/mL (≈ 69.8 µM) | 100 µg/mL (≈ 140 µM) | 25 µg/mL (≈ 34.9 µM) | > 100 µg/mL | > 100 µg/mL | 50 µg/mL (≈ 69.8 µM) | > 100 µg/mL | > 100 µg/mL | EC50 [1]: 2.88 nM; Relative Potency [1]: 490; MIC (Escherichia coli SS): > 100 µg/mL; MIC [18]: > 100 µg/mL; MIC [19]: > 100 µg/mL; MIC (Escherichia coli DC-2): > 100 µg/mL; MIC [20]: > 100 µg/mL; MIC [21]: > 100 µg/mL; MIC [22]: 100 µg/mL (≈ 140 µM); MIC [23]: 50 µg/mL (≈ 69.8 µM); MIC [24]: > 100 µg/mL; MIC [25]: > 100 µg/mL; MIC [26]: > 100 µg/mL; MIC [27]: 6.2 µg/mL (≈ 8.66 µM) |
| CC[C@H]1OC(=O)[C@H](C)[C@@H](O[C@H]2C[C@@](C)(OC)[C@@H](O)[C@H](C)O2)[C@H](C)[C@@H](O[C@@H]2O[C@H](C)C[C@H](N(C)C)[C@H]2O)[C@](C)(O)C[C@@H](C)C(=O)[C@H](C)[C@@H](O)[C@]1(C)O [Erythromycin] | 0.2 µg/mL (≈ 0.273 µM) | 0.2 µg/mL (≈ 0.273 µM) | 0.1 µg/mL (≈ 0.136 µM) | 50 µg/mL (≈ 68.1 µM) | 0.05 µg/mL (≈ 0.0681 µM) | 50 µg/mL (≈ 68.1 µM) | 0.2 µg/mL (≈ 0.273 µM) | 25 µg/mL (≈ 34.1 µM) | > 100 µg/mL | 50 µg/mL (≈ 68.1 µM) | 100 µg/mL (≈ 136 µM) | 50 µg/mL (≈ 68.1 µM) | 0.02 µg/mL (≈ 0.0273 µM) | 1.56 µg/mL (≈ 2.13 µM) | 0.02 µg/mL (≈ 0.0273 µM) | 100 µg/mL (≈ 136 µM) | > 100 µg/mL | 6.2 µg/mL (≈ 8.45 µM) | > 100 µg/mL | 6.2 µg/mL (≈ 8.45 µM) | MIC (Escherichia coli SS): 0.2 µg/mL (≈ 0.273 µM); MIC [18]: 0.2 µg/mL (≈ 0.273 µM); MIC [19]: 0.1 µg/mL (≈ 0.136 µM); MIC (Escherichia coli DC-2): 50 µg/mL (≈ 68.1 µM); MIC [20]: 100 µg/mL (≈ 136 µM); MIC [21]: 3.1 µg/mL (≈ 4.22 µM); MIC [22]: > 100 µg/mL; MIC [23]: 0.05 µg/mL (≈ 0.0681 µM); MIC [24]: > 100 µg/mL; MIC [25]: > 100 µg/mL; MIC [26]: > 100 µg/mL; MIC [27]: 0.05 µg/mL (≈ 0.0681 µM) |
